Data from patent US7138361B2, “Herbicidal heterocycles” (E. I. du Pont de Nemours and Company, priority 2000, dated 2006).

What was measured:
Assay type in all cases: in vivo
[1] = system: Surinam grass (Brachiaria decumbens); assay: Test B postemergence
Summary of the method: (§1)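 Pre: seeded pots sprayed, chemical in non-phytotoxic solvent/surfactant mix. Post: plants 2–18 cm, 1–4 leaf, same formulation. Greenhouse 13–15 d; visual % control vs untreated, 0–100 scale.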

[2] = system: barnyardgrass (Echinochloa crus-galli); assay: Test B postemergence
Summary of the method: as §1

[3] = system: blackgrass (Alopecurus myosuroides); assay: Test B postemergence; conditions: Rate 125 g/ha, scale 0 to 100, 0 no effect, 100 complete control
Summary of the method: as §1

[4] = system: cocklebur (Xanthium strumarium); assay: Test B postemergence
Summary of the method: as §1

[5] = system: corn (Zea mays); assay: Test B postemergence
Summary of the method: as §1

[6] = system: crabgrass (Digitaria sanguinalis); assay: Test B postemergence; conditions: Rate 125 g/ha, scale 0 to 100, 0 no effect, 100 complete control
Summary of the method: as §1

[7] = system: giant foxtail (Setaria faberii); assay: Test B postemergence; conditions: Rate 125 g/ha, scale 0 to 100, 0 no effect, 100 complete control
Summary of the method: as §1

[8] = system: lambsquarters (Chenopodium album); assay: Test B postemergence; conditions: Rate 125 g/ha, scale 0 to 100, 0 no effect, 100 complete control
Summary of the method: as §1

[9] = system: morning glory (Ipomoea hederacea); assay: Test B postemergence; conditions: Rate 125 g/ha, scale 0 to 100, 0 no effect, 100 complete control
Summary of the method: as §1

[10] = system: pigweed (Amaranthus retroflexus); assay: Test B postemergence; conditions: Rate 125 g/ha, scale 0 to 100, 0 no effect, 100 complete control
Summary of the method: as §1

[11] = system: velvetleaf (Abutilon theophrasti); assay: Test B postemergence; conditions: Rate 125 g/ha, scale 0 to 100, 0 no effect, 100 complete control
Summary of the method: as §1

[12] = system: wheat (Triticum aestivum); assay: Test B postemergence; conditions: Rate 125 g/ha, scale 0 to 100, 0 no effect, 100 complete control
Summary of the method: as §1

[13] = system: wild oat (Avena fatua); assay: Test B postemergence; conditions: Rate 125 g/ha, scale 0 to 100, 0 no effect, 100 complete control
Summary of the method: as §1

[14] = system: Surinam grass (Brachiaria decumbens); assay: Test B preemergence
Summary of the method: as §1

[15] = system: barnyardgrass (Echinochloa crus-galli); assay: Test B preemergence
Summary of the method: as §1

[16] = system: cocklebur (Xanthium strumarium); assay: Test B preemergence
Summary of the method: as §1

[17] = system: corn (Zea mays); assay: Test B preemergence
Summary of the method: as §1

[18] = system: crabgrass (Digitaria sanguinalis); assay: Test B preemergence
Summary of the method: as §1

[19] = system: giant foxtail (Setaria faberii); assay: Test B preemergence
Summary of the method: as §1

[20] = system: lambsquarters (Chenopodium album); assay: Test B preemergence
Summary of the method: as §1

[21] = system: morning glory (Ipomoea hederacea); assay: Test B preemergence
Summary of the method: as §1

[22] = system: pigweed (Amaranthus retroflexus); assay: Test B preemergence
Summary of the method: as §1

[23] = system: rice (Oryza saliva); assay: Test B preemergence
Summary of the method: as §1

[24] = system: velvetleaf (Abutilon theophrasti); assay: Test B preemergence
Summary of the method: as §1

[25] = system: smallflower flatsedge (Cyperus difformis); assay: Test C flooded paddy test; conditions: for Flatsedge plant response rating: Flooded Paddy, scale 0 to 100, 0 no effect, 100 complete control; for Plant response rating, Flatsedge: flooded paddy test, scale 0 to 100 (0 no effect, 100 complete control)
Summary of the method: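 Rice and three paddy weeds were grown to the 2-leaf stage under flooded conditions, then treated and kept in a greenhouse for 12–14 days. Response was rated visually against untreated controls on a 0–100 scale, where 100 is complete control.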

[26] = Rate 125 g/ha, scale 0 to 100, 0 no effect, 100 complete control
[27] = Rate 500 g/ha, scale 0 to 100, 0 is no effect, 100 is complete control, 13 to 15 days
[28] = Preemergence, Rate 500 g/ha, scale 0 to 100, 0 no effect, 100 complete control
[29] = preemergence, Rate 125 g/ha, scale of 0 to 100 where 0 is no effect and 100 is complete control, 13 to 15 days

CC(C)OC(=O)c1cccc(N2CCC(n3ccc(C(C)(C)C)n3)C2=O)c1 (stereo not shown) [Compound 124]
Plant response rating, Surinam grass [1, 26]: 0
Plant response rating, Surinam grass [1, 27]: 0
Plant response rating, Barnyardgrass [2, 26]: 0
Plant response rating, Barnyardgrass [2, 27]: 0
Plant response rating, Blackgrass [3]: 0
Plant response rating, Cocklebur [4, 26]: 20
Plant response rating, Cocklebur [4, 27]: 90
Plant response rating, Corn [5, 26]: 0
Plant response rating, Corn [5, 27]: 0
Plant response rating, Crabgrass [6]: 0
Plant response rating, Foxtail, Giant [7]: 0
Plant response rating, Lambsquarters [8]: 20
Plant response rating, Morningglory [9]: 0
Plant response rating, Pigweed [10]: 0
Plant response rating, Velvetleaf [11]: 0
Plant response rating, Wheat [12]: 0
Plant response rating, Wild Oat [13]: 0
Plant response rating, Surinam grass [14, 28]: 40
Plant response rating, Surinam grass [14, 29]: 0
Plant response rating, Barnyardgrass [15, 28]: 100
Plant response rating, Barnyardgrass [15, 29]: 70
Plant response rating, Cocklebur [16, 28]: 0
Plant response rating, Cocklebur [16, 29]: 0
Plant response rating, Corn [17, 28]: 0
Plant response rating, Corn [17, 29]: 0
Plant response rating, Crabgrass [18, 28]: 100
Plant response rating, Crabgrass [18, 29]: 30
Plant response rating, Foxtail, Giant [19, 28]: 100
Plant response rating, Foxtail, Giant [19, 29]: 50
Plant response rating, Lambsquarters [20, 28]: 100
Plant response rating, Lambsquarters [20, 29]: 100
Plant response rating, Morningglory [21, 28]: 60
Plant response rating, Morningglory [21, 29]: 0
Plant response rating, Pigweed [22, 28]: 100
Plant response rating, Pigweed [22, 29]: 80
Plant response rating, Rice [23, 28]: 0
Plant response rating, Rice [23, 29]: 0
Plant response rating, Velvetleaf [24, 28]: 0
Plant response rating, Velvetleaf [24, 29]: 0
Flatsedge plant response rating ([25]; Rate 250 g/ha): 30
Flatsedge plant response rating ([25]; Rate 500 g/ha): 90
Plant response rating, Flatsedge ([25]; Rate 62 g/ha): 0
Plant response rating, Flatsedge ([25]; Rate 125 g/ha): 20
